Measurements: US20020147318A1, “Preparation method of water soluble carboxylmethyl chitosan having anti-lipid peroxidation ability” (priority 2001, published 2002)
≈ marks a conversion by molar mass, not a printed value.

Test system: lipid peroxidation in rat liver microsomes
Experiment: Anti-lipid peroxidation in rat liver microsomes (NADPH-induced, MDA-TBA absorbance at 535 nm)
Type: biochemical
Procedure: In the present, the rat microsomes is used to provide lipid source. The product of lipid peroxidation induced by NADPH with heat treatment (deconstructing microsome enzyme) is referred as MDA (malondialdehyde). The MDA is added with TBA (thiobarbituric acid) to form MDA-TBA compound with pink fluorescence. The MDA-TBA compound has absorption spectrum at 535 nm (or 532 nm) wavelength. The content of MDA can be manifested by the absorption degree of light at those wavelengths. Therefore, the degree of lipid peroxidation can also be known. If the content of MDA is decreased after addition of water soluble CM chitosan, the reduction of MDA can be attributed to the water soluble CM chitosan. It means that the water soluble CM chitosan has the ability of anti-lipid peroxidation. In the present invention, the anti-lipid peroxidation ability of the water soluble CM chitosan is compared with that of the Trolex (water soluble vitamin E).

## Cc1c(C)c2c(c(C)c1O)CCC(C)(C(=O)O)O2 (stereo not drawn) [Trolex]
Addition of the substance to rat liver microsomes
  effect on lipid peroxidation in rat liver microsomes: can suppress the lipid peroxidation
As the added amount of the substance is increased
  MDA, the product of lipid peroxidation: monotonically decreased
Rat liver microsomes, average over at least three data
  IC50 (the concentration required to suppress 50% lipid peroxidation): 4.96 µg/mL (≈ 19.8 µM)
